# According to EP2131850B1, “EXTRACTS OF ASTER KORAIENSIS, AND PHARMACEUTICAL COMPOSITION AND FUNCTIONAL FOOD COMPRISING THE SAME” (Korea Institute of Oriental Medicine, priority 2007, dated 2008):
# Test system: production of advanced glycation endproducts (glycation of bovine serum albumin (BSA))
# Assay: In vitro inhibition of production of advanced glycation endproducts (BSA/fructose/glucose culture, fluorescence)
# Type: biochemical
# Settings: for Inhibition (%) of production of advanced glycation endproducts Inhibition: cultured at 37 °C for 14 days
# Description: For the in vitro analysis of the inhibitory effect cf each cf the leaf and stem extract of Aster koraiensis, the root extract of Aster koraiensis, the flower extract of Aster koraiensis, and the fractions cf each of the extracts, on the production cf advanced glycation endproducts, bovine serum albumin (hereinafter, referred to as BSA; Sigma, USA)) was selected as a protein source. BSA was added to 50 mM phosphate buffer (pH 7.4) to a concentration of 10 mg/mℓ. As a sugar source, a mixture of 0.2 M fructose and 0.2 M glucose was used. The fructose/glucose mixture was added to the prepared BSA solution. As test groups, each of the leaf and stem extract cf Aster koraiensis, the root extract cf Aster koraiensis, the flower extract of Aster koraiensis, and the hexane fraction, ethyl acetate fraction, butanol fraction and water fraction of each cf the extracts, was dissolved in distilled water. Then, each of the solutions was added to the BSA/sugar mixture and cultured at 37 °C for 14 days.
# At this time, 0.02% sodium azide was added as an antibacterial agent. A control group was a culture of the BSA/sugar mixture, and the blank of each cf the test groups and the control group was not cultured after their preparation. Meanwhile, as a positive control for use as an index to determine the superiority cf the inventive material, aminoguanidine was used. Four samples for each of the cultures were prepared to minimize errors. After 14 days, the content of advanced glycation endproducts (AGEs) in each of the cultures was analyzed, and the analysis results were recorded. […] The amount cf advanced glycation endproducts having such properties was measured with a spectrofluorometer (excitation: 350 nm, and emission: 450 nm) to analyze the inhibition of the production of advanced glycation endproducts. […]
# Each of the root extract and flower extract of Aster koraiensis, prepared in Example, were prepared into solutions having concentrations cf 10 µg/mℓ, 25 µg/mℓ and 50 µg/mℓ, respectively. […] After 14 days, the amount of advanced glycation endproducts produced in each of the cultures was measured with a spectrcfluorometer (excitation: 350 nm, and emission: 450 nm), and the measurement results are shown in Table 1 and FIG. 2.
# The inhibition of the production of advanced glycation endproducts is calculated according to the following equation: Inhibition (%) of production = 100-(fluorescentintensityofsamplegroupfluorescentintensityofblankofsamplegroup)/(fluorenscentintensityofcontrolgroup-fluorescentintensityofblankofcontrolgroup)x100 [formula] […]
# After 14 days, the amount cf advanced glycation endproducts produced in each cf the cultures was measured with a spectrcfluorometer (excitation: 350 nm, and emission: 450 nm).
structure (smiles),measurement,setting,value
N=C(N)NN [Aminoguanidine],Inhibition (%) of production of advanced glycation endproducts Inhibition,concentration 18.5 µg/mℓ,12.70 ± 6.12%
same,Inhibition (%) of production of advanced glycation endproducts Inhibition,concentration 55.5 µg/mℓ,39.46 ± 1.91%
same,Inhibition (%) of production of advanced glycation endproducts Inhibition,concentration 74.0 µg/mℓ,50.68 ± 0.51%
same,IC50 inhibitory concentration,"production of advanced glycation endproducts, BSA/sugar mixture, 14 days",72.12 µg/mL
